Among the test systems are Bacillus megaterium Bm11; Escherichia coli TOP 10; Escherichia coli DH10B; Escherichia coli K99; Escherichia coli K88; Escherichia coli UB1005; Escherichia coli; Vibrio anguillarum; Aeromonas salmonicida.
Common to all, as to experiment: ≥ marks a high value that may be exact or a test limit, other limits are often not marked, values filed in µg/mL are converted to µM
Assay [1] deals with Candida parapsilosis ATCC 22019.
The test system of assay [2] is Pseudomonas aeruginosa ATCC 27853.
The subject of assay [3] is Enterococcus faecalis ATCC 51299.
The subject of assay [4] is Acinetobacter baumannii ATCC 19606.
Assay [5] concerns Klebsiella pneumoniae ATCC BAA-2814.
For assay [6], the system named is Escherichia coli ATCC 25922.
In assay [7] the test system is Staphylococcus aureus ATCC BAA-2312.
For assay [8], the system named is Staphylococcus epidermidis ATCC 12228.
Assay [9] relates to Staphylococcus aureus ATCC 12600.
Assay [10] deals with Escherichia coli ATCC 35218.
The test system of assay [11] is Klebsiella pneumoniae ATCC 49472.
The test system of assay [12] is Enterococcus faecium ATCC 19434.
Assay [13] relates to Staphylococcus aureus ATCC 25923.
Assay [14] deals with Salmonella enterica subsp. enterica serovar Typhimurium ATCC 14028.
For assay [15], the system named is Saccharomyces cerevisiae BY4741.
Assay [16] has as its system Staphylococcus aureus ATCC 29213.
Assay [17] concerns Lacticaseibacillus rhamnosus 1.0936.
Assay [18] concerns Salmonella enterica subsp. enterica serovar Typhimurium C77-31.
In assay [19] the test system is Lactiplantibacillus plantarum 8014.
For assay [20], the system named is Lacticaseibacillus rhamnosus 7469.
The subject of assay [21] is Lacticaseibacillus rhamnosus 1.0911.
In assay [22] the test system is Salmonella enterica subsp. enterica serovar Pullorum C79-13.
Assay [23] deals with Staphylococcus aureus ATCC 43300.
Assay [24] deals with Lacticaseibacillus rhamnosus 1.0385.
For assay [25], the system named is Staphylococcus aureus ATCC BAA-1683.
Assay [26] deals with Salmonella enterica serovar typhimurium MS7953s.
For assay [27], the system named is Pseudomonas aeruginosa K799.
The test system of assay [28] is Pseudomonas aeruginosa Z61.
Assay [29] has as its system Salmonella enterica subsp. enterica serovar Typhimurium ATCC 14028s.
Assay [30] concerns Staphylococcus epidermidis C621.

Converted amounts (≈) assume the structure as drawn. Some results are limits rather than exact numbers.

Consider `CC[C@H](C)[C@H](NC(=O)CN)C(=O)N[C@@H](Cc1ccccc1)C(=O)N[C@@H](CC(=O)O)C(=O)N[C@H](C(=O)N[C@@H](CC(C)C)C(=O)N[C@@H](CCCCN)C(=O)N[C@@H](CC(N)=O)C(=O)N[C@@H](CC(C)C)C(=O)N[C@@H](C)C(=O)N[C@@H](CCCCN)C(=O)NCC(=O)N[C@H](C(=O)N[C@H](C(=O)N[C@H](C(=O)N[C@@H](CO)C(=O)N[C@@H](CC(C)C)C(=O)N[C@@H](C)C(=O)N[C@@H](CO)C(N)=O)[C@@H](C)O)[C@@H](C)CC)C(C)C)C(C)C` [GIFDVLKNLAKGVITSLAS], for which the MIC in assay [1] was 25 µM (≈ 48.6 µg/mL); in assay [2], 62.5 µM (≈ 122 µg/mL); in [3] it was at least 250 µM; in assay [4], 6.25 µM (≈ 12.2 µg/mL); in [5] it was at least 62.5 µM; in [6] it was 6.25 µM (≈ 12.2 µg/mL). Further, the minimal inhibitory concentration (MIC) was 31.2 µM (≈ 60.8 µg/mL) in assay [7]; 6.25 µM (≈ 12.2 µg/mL) in [8]; 0.78 µM (≈ 1.52 µg/mL) with Bacillus megaterium Bm11; 31.2 µM (≈ 60.8 µg/mL) in assay [9]; 31.2 µM (≈ 60.8 µg/mL) in assay [10]; at least 62.5 µM in assay [11]. In addition, the MIC in assay [12] was at least 62.5 µM; in assay [13] it was 12.5 µM (≈ 24.3 µg/mL); in assay [14], 62.5 µM (≈ 122 µg/mL).
For `CC[C@H](C)[C@H](NC(=O)[C@H](CCC(=O)O)NC(=O)[C@H](CCCCN)NC(=O)[C@H](CCC(=O)O)NC(=O)[C@@H](NC(=O)[C@H](CO)NC(=O)[C@H](CCC(N)=O)NC(=O)[C@@H](NC(=O)[C@@H]1CCCN1C(=O)[C@H](CC(=O)O)NC(=O)[C@H](C)NC(=O)[C@H](CCSC)NC(=O)[C@@H](NC(=O)[C@H](Cc1ccccc1)NC(=O)[C@@H](N)CC(C)C)[C@@H](C)O)[C@@H](C)CC)[C@@H](C)CC)C(N)=O` [LFTMADPIQSIEKEI], the MIC against Escherichia coli TOP 10 is at least 57.6 µM.
On to `CSCC[C@H](NC(=O)[C@@H]1CCCN1C(=O)[C@H](CCC(N)=O)NC(=O)CNC(=O)[C@@H]1CCCN1C(=O)[C@H](CCCCN)NC(=O)[C@H](CC(C)C)NC(=O)[C@H](CCC(N)=O)NC(=O)[C@H](CC(C)C)NC(=O)[C@H](Cc1c[nH]c2ccccc12)NC(=O)[C@H](Cc1cnc[nH]1)NC(=O)[C@H](Cc1c[nH]c2ccccc12)NC(=O)[C@H](Cc1ccccc1)NC(=O)[C@H](CCCN=C(N)N)NC(=O)[C@H](CC(N)=O)NC(=O)[C@H](CC(C)C)NC(=O)[C@H](Cc1ccccc1)NC(=O)[C@@H](N)CCCCN)C(=O)N[C@@H](Cc1ccc(O)cc1)C(=O)O` [KFLNRFWHWLQLKPGQPMY], for which the MIC in assay [15] is 10 µM (≈ 24.9 µg/mL); in the assay on Escherichia coli DH10B, 20 µM (≈ 49.8 µg/mL).
For `C[C@@H]1NC(=O)[C@@H](N)CSSC[C@@H](C(=O)O)NC(=O)[C@H](Cc2ccccc2)NC(=O)[C@H](Cc2ccc(O)cc2)NC(=O)[C@H](CO)NC1=O` [CASYFC], the minimal inhibitory concentration (MIC) in the assay with Escherichia coli K99 was at least 64 µM; in assay [16], over 64 µM; in [2], over 64 µM; against Escherichia coli K88, at least 64 µM; in assay [17] it was at least 64 µM; in [6], over 64 µM. The MIC is at least 64 µM in [18]; at least 64 µM in [19]; at least 64 µM in assay [20]; at least 64 µM in assay [21]; at least 64 µM in [22]; over 64 µM in assay [23]. The MIC is at least 64 µM in the assay with Escherichia coli UB1005, at least 64 µM in assay [24], over 64 µM in [13] and over 64 µM in assay [14].
Consider `CC(C)C[C@H](NC(=O)[C@H](CC(C)C)NC(=O)[C@H](CCCN=C(N)N)NC(=O)[C@H](Cc1c[nH]c2ccccc12)NC(=O)[C@H](Cc1c[nH]c2ccccc12)NC(=O)[C@@H](N)CCCCN)C(=O)N[C@@H](Cc1cnc[nH]1)C(=O)N[C@@H](CCCCN)C(=O)N[C@@H](CCCCN)C(=O)N[C@@H](CCC(N)=O)C(N)=O` [KWWRLLHKKQ], for which the values for the MIC (in the assay on Escherichia coli; in assay [25]; in [13]) were 351 µM (≈ 500 µg/mL), at least 351 µM and 351 µM (≈ 500 µg/mL), respectively.
Regarding `CC[C@H](C)[C@H](NC(=O)[C@@H](N)CO)C(=O)NCC(=O)N[C@@H](CO)C(=O)N[C@@H](C)C(=O)N[C@@H](Cc1ccccc1)C(=O)N[C@@H](CCCCN)C(=O)N[C@@H](CCCCN)C(=O)N[C@@H](C)C(=O)N[C@@H](C)C(=O)N[C@@H](Cc1cnc[nH]1)C(=O)N[C@H](C(=O)NCC(=O)N[C@@H](CCCCN)C(=O)N[C@@H](Cc1cnc[nH]1)C(=O)N[C@H](C(=O)NCC(=O)N[C@@H](CCCCN)C(=O)N[C@@H](C)C(=O)N[C@@H](C)C(=O)N[C@@H](CC(C)C)C(=O)NCC(=O)N[C@@H](C)C(=O)N[C@@H](C)C(=O)N[C@@H](C)C(=O)N[C@@H](CCCN=C(N)N)C(=O)N[C@@H](CCCN=C(N)N)C(=O)N[C@@H](CCCN=C(N)N)C(=O)N[C@@H](CCCCN)C(=O)O)C(C)C)C(C)C` [SIGSAFKKAAHVGKHVGKAALGAAARRRK], the MIC is 2.72 µM (≈ 8 µg/mL) in [26]; 21.7 µM (≈ 64 µg/mL) in the assay on Vibrio anguillarum; 21.7 µM (≈ 64 µg/mL) in assay [27]; 21.7 µM (≈ 64 µg/mL) in assay [28]; 10.9 µM (≈ 32 µg/mL) against Aeromonas salmonicida; 21.7 µM (≈ 64 µg/mL) in assay [29]. In assay [30], this molecule gave a minimum inhibitory concentration (MIC) of 21.7 µM (≈ 64 µg/mL).

Usually MIC stands for the lowest concentration found to suppress growth. Lower therefore signals inhibition by little substance.
